Source: ChEMBL document CHEMBL3991601, “The target landscape of clinical kinase drugs” (Science, 2017)
pKd: −log10 of the molar value. Calls of active or inactive are those of the source.

Tests used:
[1] = biological target: T1, Dual specificity mitogen-activated protein kinase kinase 4 (Homo sapiens, UniProt P45985)
T1 sequence (P45985 whole entry): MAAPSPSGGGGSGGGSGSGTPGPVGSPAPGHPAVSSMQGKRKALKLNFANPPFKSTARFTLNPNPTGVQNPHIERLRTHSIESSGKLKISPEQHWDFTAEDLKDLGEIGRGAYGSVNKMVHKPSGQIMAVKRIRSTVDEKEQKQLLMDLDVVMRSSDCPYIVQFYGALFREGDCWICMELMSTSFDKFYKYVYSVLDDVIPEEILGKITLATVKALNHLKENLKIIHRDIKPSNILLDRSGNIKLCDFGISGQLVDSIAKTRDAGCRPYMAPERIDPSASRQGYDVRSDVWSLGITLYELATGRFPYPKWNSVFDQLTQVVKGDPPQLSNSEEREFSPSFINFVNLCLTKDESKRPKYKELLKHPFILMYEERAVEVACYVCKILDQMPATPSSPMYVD

Misshapen-like kinase 1 = Misshapen-like kinase 1 (Homo sapiens, UniProt Q8N4C8)
Chain of Misshapen-like kinase 1 (Q8N4C8 whole entry): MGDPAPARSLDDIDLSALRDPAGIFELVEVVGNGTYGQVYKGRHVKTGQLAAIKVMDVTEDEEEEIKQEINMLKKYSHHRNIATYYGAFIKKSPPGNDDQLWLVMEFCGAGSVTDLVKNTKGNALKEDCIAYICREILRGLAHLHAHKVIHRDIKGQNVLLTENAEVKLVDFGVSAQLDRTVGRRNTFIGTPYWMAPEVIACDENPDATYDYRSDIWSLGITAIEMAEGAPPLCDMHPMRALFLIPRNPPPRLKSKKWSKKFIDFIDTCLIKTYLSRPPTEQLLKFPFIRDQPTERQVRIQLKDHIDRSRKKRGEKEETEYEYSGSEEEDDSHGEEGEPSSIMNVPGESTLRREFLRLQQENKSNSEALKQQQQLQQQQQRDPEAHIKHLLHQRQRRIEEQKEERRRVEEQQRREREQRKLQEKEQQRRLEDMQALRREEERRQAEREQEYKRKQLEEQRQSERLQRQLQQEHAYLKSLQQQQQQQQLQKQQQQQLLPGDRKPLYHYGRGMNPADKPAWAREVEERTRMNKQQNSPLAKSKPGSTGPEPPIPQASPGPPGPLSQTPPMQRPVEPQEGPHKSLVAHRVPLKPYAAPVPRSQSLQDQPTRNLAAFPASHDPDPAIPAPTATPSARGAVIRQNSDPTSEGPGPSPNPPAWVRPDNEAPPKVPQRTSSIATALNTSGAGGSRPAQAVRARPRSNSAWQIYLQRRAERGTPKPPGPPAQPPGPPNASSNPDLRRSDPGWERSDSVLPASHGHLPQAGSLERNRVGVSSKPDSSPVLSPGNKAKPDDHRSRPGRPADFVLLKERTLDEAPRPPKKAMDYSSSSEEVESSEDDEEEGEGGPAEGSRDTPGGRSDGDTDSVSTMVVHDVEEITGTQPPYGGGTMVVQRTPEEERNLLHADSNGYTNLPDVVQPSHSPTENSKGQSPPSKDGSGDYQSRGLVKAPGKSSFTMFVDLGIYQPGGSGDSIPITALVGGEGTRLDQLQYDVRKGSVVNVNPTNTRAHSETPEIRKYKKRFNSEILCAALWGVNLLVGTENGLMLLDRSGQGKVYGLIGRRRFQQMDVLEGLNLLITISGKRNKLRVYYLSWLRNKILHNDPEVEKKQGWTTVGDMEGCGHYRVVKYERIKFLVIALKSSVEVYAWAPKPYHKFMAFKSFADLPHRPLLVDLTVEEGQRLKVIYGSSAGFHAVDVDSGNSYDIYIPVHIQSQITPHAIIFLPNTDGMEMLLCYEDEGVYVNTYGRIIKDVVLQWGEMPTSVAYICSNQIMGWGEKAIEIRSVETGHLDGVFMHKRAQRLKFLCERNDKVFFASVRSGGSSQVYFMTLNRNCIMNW

[2] = biological target: Serine/threonine-protein kinase 38-like (Homo sapiens, UniProt Q9Y2H1)
Chain of Serine/threonine-protein kinase 38-like (Q9Y2H1 whole entry): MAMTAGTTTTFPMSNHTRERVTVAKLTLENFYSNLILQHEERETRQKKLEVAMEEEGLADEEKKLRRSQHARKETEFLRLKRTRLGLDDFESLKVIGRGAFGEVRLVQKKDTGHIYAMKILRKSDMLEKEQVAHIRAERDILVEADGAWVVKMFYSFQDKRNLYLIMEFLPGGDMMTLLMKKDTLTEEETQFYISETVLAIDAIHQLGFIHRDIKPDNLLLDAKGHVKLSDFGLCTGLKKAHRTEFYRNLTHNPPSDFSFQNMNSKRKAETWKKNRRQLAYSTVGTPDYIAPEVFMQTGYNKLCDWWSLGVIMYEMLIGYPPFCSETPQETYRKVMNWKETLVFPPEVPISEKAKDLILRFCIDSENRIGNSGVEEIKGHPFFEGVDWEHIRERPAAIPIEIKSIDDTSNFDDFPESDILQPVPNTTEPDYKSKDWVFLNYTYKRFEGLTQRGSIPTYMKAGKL

[3] = biological target: T2, Serine/threonine-protein kinase Nek9 (Homo sapiens, UniProt Q8TD19)
T2 sequence (Q8TD19 whole entry): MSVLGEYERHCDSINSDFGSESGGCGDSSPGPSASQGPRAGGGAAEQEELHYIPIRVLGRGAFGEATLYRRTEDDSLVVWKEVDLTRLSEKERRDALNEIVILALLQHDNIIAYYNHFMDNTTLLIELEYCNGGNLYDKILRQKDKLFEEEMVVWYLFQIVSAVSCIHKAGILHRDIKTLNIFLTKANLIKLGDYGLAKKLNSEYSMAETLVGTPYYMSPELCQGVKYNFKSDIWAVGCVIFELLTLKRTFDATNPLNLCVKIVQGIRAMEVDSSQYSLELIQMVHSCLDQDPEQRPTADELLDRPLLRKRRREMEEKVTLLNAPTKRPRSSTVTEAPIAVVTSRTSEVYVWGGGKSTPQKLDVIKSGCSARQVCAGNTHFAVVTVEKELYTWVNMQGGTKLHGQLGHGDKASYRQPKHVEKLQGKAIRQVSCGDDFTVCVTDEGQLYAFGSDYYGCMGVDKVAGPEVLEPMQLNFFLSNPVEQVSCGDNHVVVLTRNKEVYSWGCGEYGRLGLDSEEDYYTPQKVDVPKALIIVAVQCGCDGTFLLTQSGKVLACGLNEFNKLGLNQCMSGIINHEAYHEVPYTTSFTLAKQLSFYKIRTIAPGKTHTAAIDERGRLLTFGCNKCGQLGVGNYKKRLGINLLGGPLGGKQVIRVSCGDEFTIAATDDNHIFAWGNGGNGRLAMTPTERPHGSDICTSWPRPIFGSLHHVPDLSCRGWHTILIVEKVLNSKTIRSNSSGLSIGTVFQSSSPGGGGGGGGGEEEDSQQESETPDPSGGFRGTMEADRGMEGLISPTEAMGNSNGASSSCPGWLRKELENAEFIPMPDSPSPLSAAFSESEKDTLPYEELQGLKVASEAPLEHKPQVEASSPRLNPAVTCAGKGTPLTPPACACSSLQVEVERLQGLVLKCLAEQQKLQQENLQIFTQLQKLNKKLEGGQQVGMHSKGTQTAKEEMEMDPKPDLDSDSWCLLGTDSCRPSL

[4] = biological target: Serine/threonine-protein kinase Nek7 (Homo sapiens, UniProt Q8TDX7)
Chain of Serine/threonine-protein kinase Nek7 (Q8TDX7 whole entry): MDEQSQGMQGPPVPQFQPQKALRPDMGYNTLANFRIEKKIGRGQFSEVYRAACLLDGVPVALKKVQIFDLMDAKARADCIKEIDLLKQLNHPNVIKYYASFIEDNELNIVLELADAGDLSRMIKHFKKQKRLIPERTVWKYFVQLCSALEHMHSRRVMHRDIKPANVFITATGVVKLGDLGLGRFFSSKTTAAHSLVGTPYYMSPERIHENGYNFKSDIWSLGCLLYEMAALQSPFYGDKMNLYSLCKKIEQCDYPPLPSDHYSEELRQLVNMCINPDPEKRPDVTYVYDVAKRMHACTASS

[5] = biological target: Dual specificity protein kinase CLK4 (Homo sapiens, UniProt Q9HAZ1)
Chain of Dual specificity protein kinase CLK4 (Q9HAZ1 whole entry): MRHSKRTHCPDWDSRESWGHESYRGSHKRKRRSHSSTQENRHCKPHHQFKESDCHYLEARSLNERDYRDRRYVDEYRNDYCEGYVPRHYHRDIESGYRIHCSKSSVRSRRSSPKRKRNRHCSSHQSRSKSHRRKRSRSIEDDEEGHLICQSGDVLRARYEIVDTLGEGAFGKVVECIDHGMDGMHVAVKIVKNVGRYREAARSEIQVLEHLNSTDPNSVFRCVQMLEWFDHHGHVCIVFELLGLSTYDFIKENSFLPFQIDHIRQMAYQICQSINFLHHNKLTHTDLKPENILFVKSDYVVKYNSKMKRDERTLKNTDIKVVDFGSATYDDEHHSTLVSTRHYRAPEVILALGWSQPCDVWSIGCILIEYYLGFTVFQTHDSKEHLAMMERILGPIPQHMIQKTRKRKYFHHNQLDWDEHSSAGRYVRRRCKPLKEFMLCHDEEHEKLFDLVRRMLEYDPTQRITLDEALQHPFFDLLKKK

[6] = biological target: T3, Cyclin-dependent kinase-like 5 (Homo sapiens, UniProt O76039)
T3 sequence (O76039 whole entry): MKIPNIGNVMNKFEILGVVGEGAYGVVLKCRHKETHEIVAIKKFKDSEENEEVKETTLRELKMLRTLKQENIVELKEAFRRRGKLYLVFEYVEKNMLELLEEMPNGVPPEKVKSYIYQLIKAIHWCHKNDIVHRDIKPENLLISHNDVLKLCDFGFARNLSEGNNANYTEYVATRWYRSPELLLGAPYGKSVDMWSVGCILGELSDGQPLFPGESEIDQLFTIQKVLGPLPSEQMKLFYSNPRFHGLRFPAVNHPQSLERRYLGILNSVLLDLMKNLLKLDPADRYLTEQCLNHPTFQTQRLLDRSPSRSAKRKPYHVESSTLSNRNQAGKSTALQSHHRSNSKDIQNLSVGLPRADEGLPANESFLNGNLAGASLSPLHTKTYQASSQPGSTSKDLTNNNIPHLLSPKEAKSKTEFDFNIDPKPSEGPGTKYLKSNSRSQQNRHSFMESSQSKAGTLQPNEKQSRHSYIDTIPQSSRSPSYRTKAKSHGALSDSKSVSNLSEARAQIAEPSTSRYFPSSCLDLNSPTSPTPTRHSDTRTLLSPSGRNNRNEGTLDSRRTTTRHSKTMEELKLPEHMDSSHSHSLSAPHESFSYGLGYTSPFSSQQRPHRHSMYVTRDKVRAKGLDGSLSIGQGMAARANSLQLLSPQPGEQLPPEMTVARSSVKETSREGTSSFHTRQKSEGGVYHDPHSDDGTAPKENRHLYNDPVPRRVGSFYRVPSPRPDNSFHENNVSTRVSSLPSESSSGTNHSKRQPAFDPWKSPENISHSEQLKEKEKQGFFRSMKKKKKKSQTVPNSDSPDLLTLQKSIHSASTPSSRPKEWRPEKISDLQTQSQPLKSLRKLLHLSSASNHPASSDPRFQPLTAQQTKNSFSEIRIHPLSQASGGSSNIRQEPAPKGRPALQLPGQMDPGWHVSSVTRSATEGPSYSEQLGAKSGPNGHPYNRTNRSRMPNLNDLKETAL
Further: in the data inactive means no Kd found up to 30 µM.

Row | Kd [1] | Kd (Misshapen-like kinase 1) | Kd [2] | Kd [4] | Kd [5] | Kd [6] | pKd [1] | Compound | Kd [3]
1 | > 30 µM (inactive) | > 30 µM (inactive) | > 30 µM (inactive) | > 30 µM (inactive) | – | – | – | Nc1ncnc2c1c(-c1cccc(OCc3ccccc3)c1)cn2[C@H]1C[C@@H](CN2CCC2)C1 [AEW-541] | > 30 µM (inactive)
2 | > 30 µM (inactive) | > 30 µM (inactive) | > 30 µM (inactive) | – | 0.013 µM (active) | 1.93 µM (active) | – | Cc1nc(Nc2n[nH]c3c2CN(C(=O)N[C@H](CN(C)C)c2ccccc2)C3(C)C)c2sccc2n1 [PF-03758309] | > 30 µM (inactive)

The remaining lines, values behind:

Row | Compound | Kd [1] | Kd (Misshapen-like kinase 1) | Kd [2] | Kd [4] | Kd [5] | Kd [6] | pKd [1] | Kd [3]
3 | O=C(Nc1nc2cccc(-c3ccc(CN4CCS(=O)(=O)CC4)cc3)n2n1)C1CC1 [FILGOTINIB] | > 30 µM (inactive) | > 30 µM (inactive) | > 30 µM (inactive) | > 30 µM (inactive) | > 30 µM (inactive) | – | – | > 30 µM (inactive)
4 | CNC(=O)c1nn(C)c2c1C(C)(C)Cc1cnc(Nc3ccc(N4CCN(C)CC4)cc3)nc1-2 [MILCICLIB] | > 30 µM (inactive) | > 30 µM (inactive) | > 30 µM (inactive) | > 30 µM (inactive) | 0.018 µM (active) | > 30 µM (inactive) | – | 19.6 µM (active)
5 | CCOc1cc2ncc(C#N)c(Nc3ccc(F)c(Cl)c3)c2cc1NC(=O)/C=C/CN(C)C [PELITINIB] | > 30 µM (inactive) | > 30 µM (inactive) | > 30 µM (inactive) | > 30 µM (inactive) | – | – | – | > 30 µM (inactive)
6 | CO[C@H]1C[C@@H]2CC[C@@H](C)[C@@](O)(O2)C(=O)C(=O)N2CCCC[C@H]2C(=O)O[C@H]([C@H](C)C[C@@H]2CC[C@@H](OC(=O)C(C)(CO)CO)[C@H](OC)C2)CC(=O)[C@H](C)/C=C(\C)[C@@H](O)[C@@H](OC)C(=O)[C@H](C)C[C@H](C)/C=C/C=C/C=C/1C [TEMSIROLIMUS] | > 30 µM (inactive) | > 30 µM (inactive) | > 30 µM (inactive) | > 30 µM (inactive) | > 30 µM (inactive) | > 30 µM (inactive) | – | > 30 µM (inactive)
7 | O=C(Cc1ccc(-c2ccc(OCCN3CCOCC3)cc2)cn1)NCc1ccccc1 [TIRBANIBULIN] | > 30 µM (inactive) | > 30 µM (inactive) | > 30 µM (inactive) | > 30 µM (inactive) | > 30 µM (inactive) | – | – | > 30 µM (inactive)
8 | C[C@@H](NC(=O)c1ncnc(N)c1Cl)c1ncc(C(=O)Nc2cc(C(F)(F)F)c(Cl)cn2)s1 [TOVORAFENIB] | – | > 30 µM (inactive) | > 30 µM (inactive) | – | > 30 µM (inactive) | > 30 µM (inactive) | 6.84 | > 30 µM (inactive)
